From article PMC7594079, “Insights into the Function and Evolution of Taste 1 Receptor Gene Family in the Carnivore Fish Gilthead Seabream (Sparus aurata)” (International Journal of Molecular Sciences, 2020)

Target: T1, saT1R2b/R3 (Sparus aurata, UniProt A0A671TG56+A0A671VZB3)
T1 sequence (A0A671TG56 20-821): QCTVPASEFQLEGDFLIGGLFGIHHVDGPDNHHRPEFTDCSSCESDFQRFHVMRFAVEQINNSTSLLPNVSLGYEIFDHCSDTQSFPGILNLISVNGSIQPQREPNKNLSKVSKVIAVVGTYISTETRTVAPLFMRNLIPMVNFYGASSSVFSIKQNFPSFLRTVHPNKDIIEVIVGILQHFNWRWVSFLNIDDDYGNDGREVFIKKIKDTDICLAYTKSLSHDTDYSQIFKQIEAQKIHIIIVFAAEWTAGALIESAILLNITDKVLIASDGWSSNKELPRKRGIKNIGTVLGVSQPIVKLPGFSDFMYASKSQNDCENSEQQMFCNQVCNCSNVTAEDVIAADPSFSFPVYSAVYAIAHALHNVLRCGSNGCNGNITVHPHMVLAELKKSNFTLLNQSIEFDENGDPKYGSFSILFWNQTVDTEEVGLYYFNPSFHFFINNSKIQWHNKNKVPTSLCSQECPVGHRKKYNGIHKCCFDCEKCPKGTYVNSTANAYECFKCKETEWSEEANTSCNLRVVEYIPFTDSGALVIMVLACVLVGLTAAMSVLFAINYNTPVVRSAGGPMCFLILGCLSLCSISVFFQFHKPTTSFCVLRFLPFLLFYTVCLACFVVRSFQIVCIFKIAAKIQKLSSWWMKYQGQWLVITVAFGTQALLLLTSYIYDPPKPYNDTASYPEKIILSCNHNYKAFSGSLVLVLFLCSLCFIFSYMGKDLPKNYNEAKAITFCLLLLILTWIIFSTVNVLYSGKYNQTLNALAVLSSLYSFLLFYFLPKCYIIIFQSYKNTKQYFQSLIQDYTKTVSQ
T1 sequence (A0A671VZB3 24-860): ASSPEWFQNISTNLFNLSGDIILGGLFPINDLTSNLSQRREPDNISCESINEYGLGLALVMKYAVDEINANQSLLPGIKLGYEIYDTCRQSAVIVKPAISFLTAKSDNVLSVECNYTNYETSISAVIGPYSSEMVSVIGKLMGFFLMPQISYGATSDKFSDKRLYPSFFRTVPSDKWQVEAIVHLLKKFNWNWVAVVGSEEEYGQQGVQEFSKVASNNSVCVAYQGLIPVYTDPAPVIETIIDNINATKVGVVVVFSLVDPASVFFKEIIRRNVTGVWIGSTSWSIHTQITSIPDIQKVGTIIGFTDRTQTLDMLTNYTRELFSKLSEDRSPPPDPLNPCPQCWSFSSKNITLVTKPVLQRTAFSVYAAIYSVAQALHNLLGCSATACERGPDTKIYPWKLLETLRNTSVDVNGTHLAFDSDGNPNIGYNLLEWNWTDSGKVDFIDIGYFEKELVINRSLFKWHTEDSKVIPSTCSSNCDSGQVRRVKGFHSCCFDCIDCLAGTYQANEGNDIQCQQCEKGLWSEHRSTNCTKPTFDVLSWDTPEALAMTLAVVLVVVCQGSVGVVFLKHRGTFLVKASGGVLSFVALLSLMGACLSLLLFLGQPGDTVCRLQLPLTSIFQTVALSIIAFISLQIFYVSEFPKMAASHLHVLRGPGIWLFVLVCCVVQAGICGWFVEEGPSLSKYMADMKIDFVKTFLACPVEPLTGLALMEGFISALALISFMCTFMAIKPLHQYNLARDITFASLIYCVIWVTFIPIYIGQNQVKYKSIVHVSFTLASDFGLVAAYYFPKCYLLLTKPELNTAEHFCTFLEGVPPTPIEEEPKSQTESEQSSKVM
Assay: saT1R2b/R3 heterodimer transiently transfected in stable pGL3-NFAT-luc-HEK293 (Cl.3) cells, luciferase reporter
Type: cell-based
Details: for T1R2b/R3 [MSD] maximum stimulation dose: as molarity, decimal comma
Source text: Figure 6 Amino acid Log-dose response curves of activation in heterologous co-transfected (Cl.3) cells with saT1R1/3 (green dots), saT1R2a/3 (red squares) and saT1R2b/3 (black triangles) heterodimers. Evaluation of L-AA responses was based on the RLU mean ± SEM of four independent determinations normalized to the mean response of the same transfections stimulated with reduced assay medium (Basal Medium Eagle w/o L-glutamate (BME) + 1% FBS), and expressed as the percentage relative to basal levels (BL).
HEK293 cells were cultured in standard medium DMEM (Gibco, Thermo Fisher, Saint Louis, MO, USA) containing 10% FBS, penicillin (100 U/mL) and streptomycin ([…]) at 37 °C, with a humidified atmosphere at 5% CO2. pGL3-NFAT-luc-HEK293 stable clones were generated by co-transfections of pGL3-NFAT-luc and tgCMV/HyTK plasmids (50:1), the latter harboring the hygromycin phosphotransferase gene, using Lipofectamine LTX according to supplier’s protocols (Thermo Fisher, Saint Louis, MO, USA). Initially, HEK293 cells were selected using DMEM containing 400 μg/mL hygromycin B (Sigma, Darmstadt, Germany) in 24-well plates for two weeks; 24 colonies were further grown out in 96-well plates under reduced hygromycin selection (200 µg/mL) for three weeks. Potentially resistant NFAT-luc-HEK293 clones (n = 22) were validated after incubation in assay medium (DMEM + 1% FBS) containing PMA or Ionomycin (Sigma, Darmstadt, Germany) for 18 h (triplicates, 50,000 cells/well). Luciferase activity was quantified with ONE-Glo™ EX Reagent Kit (Promega, Madison, WI, USA) using a 96-microplate TECAN reader (Trading AG, Switzerland).
saT1Rs (saT1R1, saT1R2a, saT1R2b saT1R3) and saGαi1-2 genes were RT-PCR amplified using 5’ and 3’ flanking primers carrying HindIII and XhoI restriction sites, respectively. Gel-purified fragments were cloned into pGEM-T Easy vectors, re-sequenced, digested and subcloned into pcDNA™3 (Invitrogen, Carlsbad, CA, USA). Effective saT1R cloning into pcDNA™3 was further verified by HindIII/XhoI digestion. Transient co-transfections were done in 6-well plates (confluence ~70–80%) using 100 μL of reduced serum medium (Opti-MEM, Gibco, Thermo Fisher, Saint Louis, MO, USA) containing 150 ng of each selected pcDNA™3 construct, 1:10 charge ratio of Enhanced Green Fluorescent expressing construct (EGFP; positive control), and pBluescript II SK (+) vector DNA (Addgene, Watertown, MA, USA) up to 1 µg of totally transfected DNA. Following 24 h incubation, cells were washed with fresh standard medium and plated in polylysine treated plates for additional 24 h. Cells were then stimulated with L-AAs and sugar compounds for 18 h in a reduced assay medium (BME w/o L-glutamate; Gibco, Thermo Fisher, Saint Louis, MO, USA) + 1% FBS), to prevent unspecific Ca^2+/NFAT signaling activation and potential saT1R desensitization. All L-AAs and sugars used for in vitro experiments were obtained from Merck KGaA (Darmstadt, Germany).

concentration with significant activation (saT1R2b/R3, tested 1–500 mM) [mM] | Structure (SMILES) | T1R2b/R3 [MSD] maximum stimulation dose
– | C[C@@H](O)[C@H](N)C(=O)O [Thr, Threonine] | 1,00 × 10^-1 M
– | NC(=O)C[C@H](N)C(=O)O [Asn, Asparagine] | 1,00 × 10^-1 M
– | N[C@@H](CO)C(=O)O [Ser, Serine] | 1,00 × 10^-1 M
– | CC[C@H](C)[C@H](N)C(=O)O [Ile, Isoleucine] | 1,00 × 10^-1 M
– | N=C(N)NCCC[C@H](N)C(=O)O [Arg, Arginine] | 1,00 × 10^-5 M
– | NC(=O)CC[C@H](N)C(=O)O [Gln, Glutamine] | 1,00 × 10^-1 M
– | O=C(O)[C@@H]1CCCN1 [Pro, Proline] | 1,00 × 10^-1 M
– | N[C@@H](Cc1ccc(O)cc1)C(=O)O [Tyr, Tyrosine] | 1,00 × 10^-3 M
– | CC(C)[C@H](N)C(=O)O [Val, Valine] | 1,00 × 10^-1 M
– | CC(C)C[C@H](N)C(=O)O [Leu, Leucine] | 1,00 × 10^-1 M
– | CSCC[C@H](N)C(=O)O [Met, Methionine] | 1,00 × 10^-1 M
– | N[C@@H](CC(=O)O)C(=O)O [Asp, Aspartic acid] | 1,00 × 10^-5 M
– | NCC(=O)O [Gly, Glycine] | 1,00 × 10^-1 M
– | N[C@@H](Cc1c[nH]cn1)C(=O)O [His, Histidine] | 1,00 × 10^-5 M
– | N[C@@H](CCC(=O)O)C(=O)O [Glu, Glutamic acid] | 1,00 × 10^-2 M
200 | OC[C@H]1OC(O)[C@H](O)[C@@H](O)[C@@H]1O (stereo partly drawn) [D-Glucose] | –
– | N[C@@H](CS)C(=O)O [Cys, Cysteine] | 1,00 × 10^-4 M
– | C[C@H](N)C(=O)O [Ala, Alanine] | 1,00 × 10^-1 M
– | NCCCC[C@H](N)C(=O)O [Lys, Lysine] | 1,00 × 10^-3 M
– | N[C@@H](Cc1c[nH]c2ccccc12)C(=O)O [Trp, Tryptophan] | 1,00 × 10^-3 M
– | N[C@@H](Cc1ccccc1)C(=O)O [Phe, Phenylalanine] | 1,00 × 10^-2 M
